Assay results as given in patent US4016159A, “Acylamino-cephem-carboxylic acids containing an amidino or guanidino group in the molecule” (Hoechst Aktiengesellschaft, priority 1973, dated 1977).
≈ marks a conversion by molar mass, not a printed value.

Experiments:
Assay type in all cases: cell-based
Streptococcus pyogenes A = experiment: Minimum inhibition concentration (MIC), Table 3; settings: Germ: Streptococcus pyogenes A; for MIC: read-out: Minimum inhibition concentration MIC
Description: Minimum inhibition concentration MIC in γ/ml
Germ: Streptococcus pyogenes A

[1] = system: Staphylococcus aureus 285; experiment: Minimum inhibition concentration (MIC), Table 1; settings: for MIC: Staphylococcus aureus, 285, Germ: Staphylococcus aureus 285, read-out: Minimum inhibition concentration (MIC)
Description: (§1) Minimum inhibition concentration (MIC) in γ/ml
Germ: Staphylococcus aureus 285

Streptococcus D = experiment: Minimum inhibition concentration (MIC), Table 4; settings: Germ: Streptococcus D; for MIC: Streptococcus, read-out: Minimum inhibition concentration (MIC)
Description: as §1

[2] = system: Staphylococcus aureus SG 511; experiment: Minimum inhibition concentration (MIC), Table 5; settings: Staphylococcus aureus, SG511, Germ: Staphylococcus aureus SG 511; read-out: Minimum inhibition concentration (MIC)
Description: as §1
Germ: Staphylococcus aureus SG 511

| SMILES | MIC (Streptococcus pyogenes A) [µg/mL] | MIC [1] [µg/mL] | MIC (Streptococcus D) [µg/mL] | MIC [2] [µg/mL] | Minimum inhibition concentration (MIC) (Streptococcus pyogenes A) [µg/mL] | Minimum inhibition concentration (MIC) ([1]; Germ: Staphylococcus aureus 285) [µg/mL] | Minimum inhibition concentration (MIC) (Streptococcus D) [µg/mL] |
| --- | --- | --- | --- | --- | --- | --- | --- |
| O=C(COc1ccc(C2=NCCN2)cc1)NC1C(=O)N2C(C(=O)O)=C(CSc3nncs3)CSC12 (centres unmarked) [Example 73, 3-[(1,3,4-thiadiazole-2-yl)-thiomethyl]-7-[4-(imidazoline-2-yl)-phenoxyacetamido]-Δ 3-cephem-4-carboxylic acid] | 0.000391 to 0.0078 (≈ 0.000734 to 0.0146 µM) | 0.5 to 1.25 (≈ 0.939 to 2.35 µM) | 10 to 50 (≈ 18.8 to 93.9 µM) | 0.0625 to 0.078 (≈ 0.117 to 0.146 µM) |  |  |  |
| Cc1nnc(SCC2=C(C(=O)O)N3C(=O)C(NC(=O)COc4ccc(C5=NCCCN5)cc4)C3SC2)s1 (centres unmarked) [Example 34, 3-[(5-methyl-1,3,4-thiadizole-2-yl)-thiomethyl]-7-[4-(1,4,5,6-tetrahydropyromide-2-yl)-phenoxyacetamido]-Δ 3-cephem-4-carboxylic acid] | 0.008 to 0.0156 (≈ 0.0143 to 0.0278 µM) | 0.5 to 1.25 (≈ 0.892 to 2.23 µM) | 0.196 to 6.25 (≈ 0.35 to 11.1 µM) | 0.0625 to 0.078 (≈ 0.111 to 0.139 µM) |  |  |  |
| CCCCc1nnc(SCC2=C(C(=O)O)N3C(=O)C(NC(=O)Cc4ccc(C(=N)N)cc4)C3SC2)o1 (centres unmarked) [Example 54, 3-[(5-n-butyl-1,3,4-oxadiazole-2-yl)-thiomethyl]-7-(4-amidino-phenylacetamido)-Δ 3-cephem-4-carboxylic acid] | 0.000391 to 0.0078 (≈ 0.000737 to 0.0147 µM) | 0.156 to 0.391 (≈ 0.294 to 0.737 µM) | 10 to 50 (≈ 18.8 to 94.2 µM) | 0.0196 to 0.0391 (≈ 0.0369 to 0.0737 µM) |  |  |  |
| O=C(COc1ccc(C2=NCCCN2)cc1)NC1C(=O)N2C(C(=O)O)=C(CSc3nnc(-c4ccccc4)s3)CSC12 (centres unmarked) [Example 50] | 0.000391 to 0.0078 (≈ 0.000628 to 0.0125 µM) | 0.156 to 0.391 (≈ 0.251 to 0.628 µM) | 0.196 to 6.25 (≈ 0.315 to 10 µM) | 0.0196 to 0.0391 (≈ 0.0315 to 0.0628 µM) |  |  |  |
| N=C(N)c1ccc(OCC(=O)NC2C(=O)N3C(C(=O)O)=C(CSc4nncs4)CSC23)cc1 (centres unmarked) [Example 63, 3-[(1,3,4-thiadiazole-2-yl)-thiomethyl]-7-(4amidinophenoxyacetamido)-Δ 3-cephem-4-carboxylic acid] | 0.008 to 0.0156 (≈ 0.0158 to 0.0308 µM) | 0.156 to 0.391 (≈ 0.308 to 0.772 µM) | 10 to 50 (≈ 19.7 to 98.7 µM) | 0.0625 to 0.078 (≈ 0.123 to 0.154 µM) |  |  |  |
| CCCCCCNC(=N)c1ccc(OCC(=O)NC2C(=O)N3C(C(=O)O)=C(CSc4nnc(-c5ccccc5)o4)CSC23)cc1 (centres unmarked) [Example 39] | 0.008 to 0.0156 (≈ 0.0123 to 0.024 µM) | 0.5 to 1.25 (≈ 0.768 to 1.92 µM) | 10 to 50 (≈ 15.4 to 76.8 µM) | 0.0196 to 0.0391 (≈ 0.0301 to 0.0601 µM) |  |  |  |
| CCCCc1csc(SCC2=C(C(=O)O)N3C(=O)C(NC(=O)Cc4ccc(C5=NCCN5)cc4)C3SC2)n1 (centres unmarked) [Example 113] | 0.000391 to 0.0078 (≈ 0.000684 to 0.0136 µM) | 0.156 to 0.391 (≈ 0.273 to 0.684 µM) | 0.196 to 6.25 (≈ 0.343 to 10.9 µM) | 0.0625 to 0.078 (≈ 0.109 to 0.136 µM) |  |  |  |
| O=C(Cc1ccc(C2=NCCCN2)cc1)NC1C(=O)N2C(C(=O)O)=C(CSc3nc4ccccc4s3)CSC12 (centres unmarked) [Example 85, 3-[benzothiazole-2-yl-thiomethyl]-7-[4-(1,4,5,6-tetrahydropyrimide-2-yl)-phenylacetamido]-Δ 3-cephem-4-carboxylic acid] | 0.000391 to 0.0078 (≈ 0.000674 to 0.0135 µM) | 0.156 to 0.391 (≈ 0.269 to 0.674 µM) | 10 to 50 (≈ 17.2 to 86.2 µM) | 0.0625 to 0.078 (≈ 0.108 to 0.135 µM) |  |  |  |
| O=C(COc1ccc(C2=NCCCN2)cc1)NC1C(=O)N2C(C(=O)O)=C(CSc3nnc(-c4ccccc4)o3)CSC12 (centres unmarked) [Example 51, 3-[(5-phenyl-1,3,4-oxadiazole-2-yl)-thiomethyl]-7-[4-(1,4,5,6-tetrahydropyrimide-2-yl)-phenoxyacetamido]-Δ 3-cephem-4-carboxylic acid] | 0.000391 to 0.0078 (≈ 0.000644 to 0.0129 µM) | 0.156 to 0.391 (≈ 0.257 to 0.644 µM) | 0.196 to 6.25 (≈ 0.323 to 10.3 µM) | 0.0196 to 0.0391 (≈ 0.0323 to 0.0644 µM) |  |  |  |
| O=C(Cc1ccc(C2=NCCCN2)cc1)NC1C(=O)N2C(C(=O)O)=C(CSc3nnc(-c4ccccc4)o3)CSC12 (centres unmarked) [Example 103, 3-[(5-phenyl-1,3,4-oxadiazole-2-yl)-thiomethyl]-7-[4-(1,4,5,6-tetrahydropyrimide-2-yl)-phenylacetamido]-Δ3-cephem-4-carboxylic acid] |  |  |  | 0.0625 to 0.078 (≈ 0.106 to 0.132 µM) | 0.000391 to 0.0078 | 0.156 to 0.391 | 10 to 50 |
| Cc1nc(SCC2=C(C(=O)O)N3C(=O)C(NC(=O)Cc4ccc(C5=NCCCN5)cc4)C3SC2)sc1C (centres unmarked) [Example 106, 3-[(4,5-dimethylthiazole-2-yl)-thiomethyl]-7-[4-(1,4,5,6-tetrahydropyrimide-2-yl)-phenylacetamido]-Δ3-cephem-4-carboxylic acid] | 0.000391 to 0.0078 (≈ 0.000701 to 0.014 µM) | 0.156 to 0.391 (≈ 0.28 to 0.701 µM) | 10 to 50 (≈ 17.9 to 89.7 µM) | 0.0625 to 0.078 (≈ 0.112 to 0.14 µM) |  |  |  |
